Values of other authors in US10179139B2, “Pharmaceutical composition” (CIPLA Limited, priority 2010, dated 2019).

Settings: in vivo

CCc1cc2c(cc1CC)CC(NC[C@H](O)c1ccc(O)c3[nH]c(=O)ccc13)C2 [Indacaterol, (R)-5-[2-[(5,6-Diethyl-2,3-dihydro-1H-inden-2-yl)amino]-1-hydroxyethyl]-8-hydroxyquinolin-2(1H)-one]
duration of action: more than 24 hrs

C[N+]1(C)[C@@H]2C[C@@H](OC(=O)C(O)(c3cccs3)c3cccs3)C[C@H]1[C@@H]1O[C@@H]12 [Tiotropium, (1α, 2β, 4β, 5α, 7β)-7-[(Hydroxydi-2-thienylacetyl)oxy]-9,9-dimethyl-3-oxa-9-azoniatricyclo[3.3.1.0^2,4]nonane bromide monohydrate]
duration of action: up to 32 hours
